According to ChEMBL document CHEMBL1139363, “Iron chelators of the dipyridylketone thiosemicarbazone class: precomplexation and transmetalation effects on anticancer activity” (J Med Chem, 2009):

System: HL-60
Assay: Antiproliferative activity against human HL60 cells after 72 hrs by MTT assay
Format: functional, cell-based
Conditions: HL-60, 72 h

Work on `CN(C)C(=S)NN=C(c1ccccn1)c1ccccn1` yielded an IC50 of 10 nM.
